From US11472805B2, “Tricyclic compounds and their use as phosphodiesterase inhibitors” (Pfizer Inc., priority 2015, dated 2022) come the findings set out here.

Read-outs that look alike come from different tables or passages of the source. Some results are limits rather than exact numbers.

Type in all cases: biochemical
One assay concerns the target Human PDE4B1 (Homo sapiens (Human), UniProt Q07343, S133E/S654A/S659A/S661A). Put plainly: PDE4B1 Scintillation Proximity Assay (SPA), inhibition of enzyme activity. The settings on record: read-out: Human PDE4B FL. The method in brief:
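His-tagged enzyme from baculovirus-infected insect cells, Ni-NTA purified. SPA with 1 μM cAMP (20 nM 3H-cAMP tracer) in 50 mM Tris pH 7.5, 1.3 mM MgCl2, 0.01% Brij, […] PDE4B enzyme for ~20% substrate conversion; 30 min at 25 °C, stopped with yttrium silicate beads, read after 8 h settling.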
A general note: Scintillation proximity formats need no separation of bound from free tracer.

A further assay concerns the target Human PDE4A3 (Homo sapiens (Human), UniProt P27815). Put plainly: PDE4A3 Scintillation Proximity Assay (SPA), inhibition of enzyme activity. The settings on record: read-out: Human PDE4A FL. The method in brief: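 Recombinant human PDE4A3 expressed in insect cells, purified via Ni-NTA, anti-FLAG and size exclusion. SPA run 30 min at 25 °C in 50 mM Tris pH 7.5, 1.3 mM MgCl2, 0.01% Brij with 1 μM cAMP (20 nM 3H-cAMP), […], ~20% substrate conversion; stopped with yttrium silicate beads.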

A further assay concerns the target human PDE4D3 (Homo sapiens (Human), UniProt Q08499). Put plainly: PDE4D3 Scintillation Proximity Assay (SPA), inhibition of enzyme activity. To be noted: read-out: Human PDE4D FL. The method in brief: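 His-tagged human PDE4D3 (aa 50–672), expressed in insect cells, hydrolysed 1 μM cAMP (3H tracer plus cold) for 30 min at 25° C in 50 mM Tris pH 7.5, 1.3 mM MgCl2 and 0.01% Brij. Enzyme level was set for ~20% conversion. Product was read by yttrium silicate SPA beads after 8 h settling.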

A further assay concerns the target Human PDE4C1 (Homo sapiens (Human), UniProt Q08493). Put plainly: PDE4C1 Scintillation Proximity Assay (SPA), inhibition of enzyme activity. The settings on record: read-out: Human PDE4C FL. The method in brief:
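Recombinant insect-cell-expressed human PDE4C1 […] in 50 mM Tris pH 7.5, 1.3 mM MgCl2, 0.01% Brij with 1 μM cAMP (3H-cAMP tracer), ~20% substrate conversion, inhibitor concentration range. Incubated 30 min at 25° C; stopped with yttrium silicate SPA beads, read by scintillation after 8 h settling.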

The mark [1] stands for this setting: Table 9, geometric mean of 2-9 determinations unless otherwise indicated.
Setting [2] is: Table 10, geometric mean of 2-9 determinations unless otherwise indicated.

Human PDE4C1, sequence (Q08493 2-712): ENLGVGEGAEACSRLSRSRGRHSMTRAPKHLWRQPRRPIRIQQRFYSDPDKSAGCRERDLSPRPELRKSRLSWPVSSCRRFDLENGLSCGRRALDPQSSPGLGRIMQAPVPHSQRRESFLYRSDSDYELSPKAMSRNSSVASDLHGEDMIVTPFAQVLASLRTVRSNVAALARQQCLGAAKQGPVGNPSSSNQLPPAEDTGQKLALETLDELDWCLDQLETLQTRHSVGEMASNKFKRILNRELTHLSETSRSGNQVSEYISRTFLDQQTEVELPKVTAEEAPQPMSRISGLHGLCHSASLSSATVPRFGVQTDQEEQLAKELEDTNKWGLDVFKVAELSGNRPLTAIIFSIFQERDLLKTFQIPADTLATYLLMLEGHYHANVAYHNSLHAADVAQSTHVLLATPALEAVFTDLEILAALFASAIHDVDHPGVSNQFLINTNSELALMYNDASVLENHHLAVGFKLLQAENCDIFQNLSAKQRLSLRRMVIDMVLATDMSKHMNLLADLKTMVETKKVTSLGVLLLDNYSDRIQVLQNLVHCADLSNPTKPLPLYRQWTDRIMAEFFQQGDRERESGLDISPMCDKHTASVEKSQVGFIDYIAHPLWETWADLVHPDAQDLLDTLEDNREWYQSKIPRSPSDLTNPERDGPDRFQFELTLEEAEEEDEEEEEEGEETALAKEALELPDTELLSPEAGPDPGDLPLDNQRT
Human PDE4A3, sequence (P27815 other isoform, or with tags, fused parts or gaps): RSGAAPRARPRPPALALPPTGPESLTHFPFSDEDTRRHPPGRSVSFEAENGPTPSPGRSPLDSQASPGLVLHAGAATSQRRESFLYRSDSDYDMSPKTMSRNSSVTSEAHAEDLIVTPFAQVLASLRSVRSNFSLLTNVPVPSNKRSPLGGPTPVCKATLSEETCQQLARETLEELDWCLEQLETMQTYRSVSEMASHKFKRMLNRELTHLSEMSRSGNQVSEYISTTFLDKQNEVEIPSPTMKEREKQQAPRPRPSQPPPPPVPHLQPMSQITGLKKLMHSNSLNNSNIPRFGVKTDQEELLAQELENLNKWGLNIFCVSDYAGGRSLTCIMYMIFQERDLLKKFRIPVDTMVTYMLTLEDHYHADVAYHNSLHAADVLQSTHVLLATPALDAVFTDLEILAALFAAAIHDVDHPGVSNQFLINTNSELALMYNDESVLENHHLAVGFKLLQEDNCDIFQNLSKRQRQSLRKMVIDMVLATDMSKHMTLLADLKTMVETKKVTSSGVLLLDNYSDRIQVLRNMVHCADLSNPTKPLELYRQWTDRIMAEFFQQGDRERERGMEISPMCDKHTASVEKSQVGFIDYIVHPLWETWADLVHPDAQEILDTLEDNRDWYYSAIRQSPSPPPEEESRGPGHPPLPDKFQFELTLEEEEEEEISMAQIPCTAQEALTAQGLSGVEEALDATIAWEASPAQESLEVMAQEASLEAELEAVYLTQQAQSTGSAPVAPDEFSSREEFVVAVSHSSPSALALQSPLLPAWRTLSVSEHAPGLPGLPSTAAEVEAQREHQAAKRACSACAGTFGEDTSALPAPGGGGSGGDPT
Human PDE4B1, sequence (Q07343 122-736 S133E/S654A/S659A/S661A): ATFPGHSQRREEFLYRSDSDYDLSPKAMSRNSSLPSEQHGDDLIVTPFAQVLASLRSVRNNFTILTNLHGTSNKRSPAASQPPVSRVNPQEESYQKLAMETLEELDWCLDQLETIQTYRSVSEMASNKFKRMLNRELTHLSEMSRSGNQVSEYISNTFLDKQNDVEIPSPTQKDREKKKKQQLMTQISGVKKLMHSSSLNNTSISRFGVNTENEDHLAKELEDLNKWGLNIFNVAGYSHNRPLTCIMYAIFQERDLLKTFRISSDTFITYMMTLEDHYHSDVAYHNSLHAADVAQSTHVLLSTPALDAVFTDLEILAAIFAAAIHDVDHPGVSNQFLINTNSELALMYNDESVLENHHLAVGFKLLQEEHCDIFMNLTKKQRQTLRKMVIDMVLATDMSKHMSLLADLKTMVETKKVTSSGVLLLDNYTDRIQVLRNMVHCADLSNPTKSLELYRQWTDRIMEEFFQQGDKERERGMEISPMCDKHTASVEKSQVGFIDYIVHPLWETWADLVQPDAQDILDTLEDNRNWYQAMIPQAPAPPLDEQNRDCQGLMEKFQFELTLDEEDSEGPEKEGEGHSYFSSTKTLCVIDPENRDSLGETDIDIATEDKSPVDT
human PDE4D3, sequence (Q08499 186-808): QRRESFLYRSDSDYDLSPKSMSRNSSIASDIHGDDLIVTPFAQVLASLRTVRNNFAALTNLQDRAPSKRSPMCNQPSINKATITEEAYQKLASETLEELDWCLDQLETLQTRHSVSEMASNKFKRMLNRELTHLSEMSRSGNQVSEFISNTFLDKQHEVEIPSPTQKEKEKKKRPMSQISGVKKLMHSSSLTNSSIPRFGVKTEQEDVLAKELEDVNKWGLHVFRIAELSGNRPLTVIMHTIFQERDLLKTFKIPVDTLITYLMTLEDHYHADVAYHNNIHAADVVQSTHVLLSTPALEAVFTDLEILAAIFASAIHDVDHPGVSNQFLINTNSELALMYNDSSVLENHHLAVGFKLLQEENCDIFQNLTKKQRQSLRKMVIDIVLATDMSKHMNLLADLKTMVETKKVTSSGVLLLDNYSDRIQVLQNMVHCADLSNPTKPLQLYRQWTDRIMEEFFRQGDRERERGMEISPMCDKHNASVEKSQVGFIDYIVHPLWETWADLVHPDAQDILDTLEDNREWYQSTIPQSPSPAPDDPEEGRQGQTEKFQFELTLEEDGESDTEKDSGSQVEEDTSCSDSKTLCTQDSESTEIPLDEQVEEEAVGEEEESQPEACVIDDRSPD

For `COc1ccc(-c2c3n(c4cccnc24)CCN(C2CC2)C3=O)c(F)c1` [Example 54, 8-Cyclopropyl-10-(2-fluoro-4-methoxyphenyl)-7,8-dihydropyrido[2′,3′:4,5]pyrrolo[1,2-a]pyrazin-9(6H)-one], the IC50 on Human PDE4B1 (setting [1]) was 54.6 nM; on Human PDE4A3 (setting [1]), 21.2 nM; at human PDE4D3 (setting [1]), 3770 nM; on Human PDE4C1 (setting [1]), 35.8 nM.
On the same counts, the results for `O=C1c2c(-c3cncnc3)c3ncccc3n2CCN1C1CC1` [Example 55, 8-Cyclopropyl-10-(pyrimidin-5-yl)-7,8-dihydropyrido[2′,3′:4,5]pyrrolo[1,2-a]pyrazin-9(6H)-one] are 111 nM, 222 nM, 3700 nM and 500 nM.
As for `Cc1cc(N2CCn3c(c(-c4ccc(Cl)cc4)c4ncccc43)C2=O)no1` [Example 57, 10-(4-Chlorophenyl)-8-(5-methyl-1,2-oxazol-3-yl)-7,8-dihydropyrido[2′,3′:4,5]pyrrolo[1,2-a]pyrazin-9(6H)-one], the IC50 at Human PDE4B1 (setting [1]) worked out at 3.81 nM; at Human PDE4A3 (setting [1]) it was 3.49 nM; on human PDE4D3 (setting [1]), 38.3 nM; at Human PDE4C1 (setting [1]), 10.8 nM.
Consider `O=C1c2c(-c3ccc4ncnn4c3)c3ncccc3n2CCN1C1CC1` [Example 58, 8-Cyclopropyl-10-([1,2,4]triazolo[1,5-a]pyridin-6-yl)-7,8-dihydropyrido[2′,3′:4,5]pyrrolo[1,2-a]pyrazin-9(6H)-one], for which the IC50 at Human PDE4B1 (setting [1]) is 24 nM; at Human PDE4A3 (setting [1]), 12.6 nM; on human PDE4D3 (setting [1]), 624 nM; at Human PDE4C1 (setting [1]), 62.6 nM.
On the same counts, the results for `COc1c(F)cc(-c2c3n(c4nccnc24)CCN(C2CC2)C3=O)cc1F` [Example 59, 8-Cyclopropyl-10-(3,5-difluoro-4-methoxyphenyl)-7,8-dihydropyrrolo[1,2-a:4,5-b′]dipyrazin-9(6H)-one] are 9.73 nM, 12.6 nM, 290 nM and 87.7 nM.
`Cc1ccc(C#N)cc1-c1c2n(c3cccnc13)CCN(C1CC1)C2=O` [Example 60, 3-(8-Cyclopropyl-9-oxo-6,7,8,9-tetrahydropyrido[2′,3′:4,5]pyrrolo[1,2-a]pyrazin-10-yl)-4-methylbenzonitrile]: the IC50 on Human PDE4B1 (setting [1]) came to 11.2 nM; on Human PDE4A3 (setting [1]), 11.8 nM; at human PDE4D3 (setting [1]) it was 397 nM; at Human PDE4C1 (setting [1]) it was 99 nM.
On to `N#Cc1ccc(-c2c3n(c4cccnc24)CC2CCCN2C3=O)cc1` (stereo not drawn) [Example 61, 4-(11-Oxo-6a,7,8,9-tetrahydro-6H,11H-pyrido[2′,3′:4,5]pyrrolo[1,2-a]pyrrolo[1,2-d]pyrazin-12-yl)benzonitrile], for which the IC50 stood at 39 nM at Human PDE4B1 (setting [1]), 35.1 nM at Human PDE4A3 (setting [1]), 1640 nM at human PDE4D3 (setting [1]) and 60.3 nM on Human PDE4C1 (setting [1]).
On the same counts, the results for `O=C1c2c(-c3ccc(Cl)cc3)c3ncccc3n2CC2COCCN12` (stereo not drawn) [Example 63, 13-(4-Chlorophenyl)-6a,7,9,10-tetrahydro-6H,12H-pyrido[2″,3″:4′,5′]pyrrolo[1′,2′:4,5]pyrazino[2,1-c][1,4]oxazin-12-one] are 32.1 nM, 219 nM, 1350 nM and 731 nM.
On the same counts, the results for `O=C1c2c(-c3cnc4ccoc4c3)c3ncccc3n2CCN1C1CC1` [Example 64, 8-Cyclopropyl-10-(furo[3,2-b]pyridin-6-yl)-7,8-dihydropyrido[2′,3′:4,5]pyrrolo[1,2-a]pyrazin-9(6H)-one] are 11.5 nM, 3.56 nM, 458 nM and 37.5 nM.
Turning to `Cc1ccc(-c2c3n(c4cccnc24)CCN(C2CC2)C3=O)c(C)c1` [Example 65, 8-Cyclopropyl-10-(2,4-dimethylphenyl)-7,8-dihydropyrido[2′,3′:4,5]pyrrolo[1,2-a]pyrazin-9(6H)-one], the IC50 came to 6.7 nM on Human PDE4B1 (setting [1]), 5.65 nM at Human PDE4A3 (setting [1]), 481 nM on human PDE4D3 (setting [1]) and 13.8 nM on Human PDE4C1 (setting [1]).
On the same counts, the results for `Cc1ccc(-c2c3ncccc3n3ccn(C4CC4)c(=O)c23)c(C)c1` [Example 66, 8-Cyclopropyl-10-(2,4-dimethyl-phenyl)pyrido[2′,3′:4,5]pyrrolo[1,2-a]pyrazin-9(8H)-one] are 6.87 nM, 5.42 nM, 460 nM and 16.7 nM.
Regarding `N#Cc1ccc(-c2c3ncccc3n3ccn(C4CC4)c(=O)c23)cc1` [Example 70, 4-(8-Cyclopropyl-9-oxo-8,9-dihydropyrido[2′,3′:4,5]pyrrolo[1,2-a]pyrazin-10-yl)benzonitrile], the IC50 came out at 2.67 nM on Human PDE4B1 (setting [1]), 2.8 nM at Human PDE4A3 (setting [1]), 108 nM at human PDE4D3 (setting [1]) and 8.55 nM on Human PDE4C1 (setting [1]).
Regarding `N#Cc1ccc(-c2c3n(c4scnc24)CCN(C2CC2)C3=O)cn1` [Example 71, 5-(7-Cyclopropyl-8-oxo-5,6,7,8-tetrahydro[1,3]thiazolo[4′,5′:4,5]pyrrolo[1,2-a]pyrazin-9-yl)pyridine-2-carbonitrile], the IC50 at Human PDE4B1 (setting [1]) stood at 43.5 nM; on Human PDE4A3 (setting [1]) it was 27.6 nM; at human PDE4D3 (setting [1]) it was 1070 nM; on Human PDE4C1 (setting [1]), 52.5 nM.
As to `N#Cc1ccc(-c2c3n(c4scnc24)CCN(C2CC2)C3=O)cc1F` [Example 72, 4-(7-Cyclopropyl-8-oxo-5,6,7,8-tetrahydro[1,3]thiazolo[4′,5′:4,5]pyrrolo[1,2-a]pyrazin-9-yl)-2-fluorobenzonitrile], the IC50 at Human PDE4B1 (setting [1]) stood at 4.36 nM; at Human PDE4A3 (setting [1]), 3.53 nM; on human PDE4D3 (setting [1]) it was 90.4 nM; on Human PDE4C1 (setting [1]), 15.1 nM.
On the same counts, the results for `Cc1cc(Cl)ccc1-c1c2n(c3cccnc13)CCN(c1ncccn1)C2=O` [Example 73, 10-(4-Chloro-2-methylphenyl)-8-(pyrimidin-2-yl)-7,8-dihydropyrido[2′,3′:4,5]pyrrolo[1,2-a]pyrazin-9(6H)-one] are 25.2 nM, 7.66 nM, 700 nM and 122 nM.
On the same counts, the results for `O=C1c2c(-c3ccc(Cl)c(F)c3)c3ncccc3n2CCN1c1ncccn1` [Example 74, 10-(4-Chloro-3-fluorophenyl)-8-(pyrimidin-2-yl)-7,8-dihydropyrido[2′,3′:4,5]pyrrolo[1,2-a]pyrazin-9(6H)-one] are 27 nM, 19 nM, 660 nM and 52 nM.
On the same counts, the results for `O=C1c2c(-c3ccc(Cl)cc3)c3c(n2CCN1C1CC1)CCCO3` [Example 75, 10-(4-Chlorophenyl)-8-cyclopropyl-3,4,7,8-tetrahydro-2H-pyrano[2′,3′:4,5]pyrrolo[1,2-a]pyrazin-9(6H)-one] are 3.99 nM, 1.26 nM, 286 nM and 11.7 nM.
With `O=C1c2c(-c3ccc(Cl)c(F)c3)c3c(n2CCN1C1CC1)CCCO3` [Example 76, 10-(4-Chloro-3-fluorophenyl)-8-cyclopropyl-3,4,7,8-tetrahydro-2H-pyrano[2′,3′:4,5]pyrrolo[1,2-a]pyrazin-9(6H)-one], the IC50 on Human PDE4B1 (setting [1]) was under 0.55 nM; at Human PDE4A3 (setting [1]) it was under 0.31 nM; at human PDE4D3 (setting [1]), 21.6 nM; at Human PDE4C1 (setting [1]), 2 nM.
On the same counts, the results for `O=C1c2c(-c3cc(F)c(Cl)cc3F)c3c(n2CCN1C1CC1)CCCO3` [Example 77, 10-(4-Chloro-2,5-difluorophenyl)-8-cyclopropyl-3,4,7,8-tetrahydro-2H-pyrano[2′,3′:4,5]pyrrolo[1,2-a]pyrazin-9(6H)-one] are 0.84 nM, 1 nM, 56.2 nM and 5.94 nM.
As for `CS(=O)(=O)N1CCn2c(c(-c3ccc(Cl)cc3)c3ncccc32)C1=O` [Example 79, 10-(4-Chlorophenyl)-8-(methylsulfonyl)-7,8-dihydropyrido[2′,3′:4,5]pyrrolo[1,2-a]pyrazin-9(6H)-one], the IC50 at Human PDE4B1 (setting [2]) is 212 nM; at Human PDE4A3 (setting [2]) it was 104 nM; on human PDE4D3 (setting [2]), 120 nM; on Human PDE4C1 (setting [2]) it was 173 nM.
On the same counts, the results for `CCNC(=O)N1CCn2c(c(-c3ccc(Cl)cc3)c3ncccc32)C1=O` [Example 80, 10-(4-Chlorophenyl)-N-ethyl-9-oxo-6,7-dihydropyrido[2′,3′:4,5]pyrrolo[1,2-a]pyrazine-8(9H)-carboxamide] are 66.2 nM, 44 nM, 42.8 nM and 106 nM.
